# Data as given in PubChem BioAssay (NCI).
#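 Cells were grown in 96-well plates and exposed to each compound for 48 hours at five concentrations; endpoints were interpolated linearly between bracketing concentrations, or set to the highest concentration if not reached. TGI denotes the concentration required for complete inhibition of growth.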
# Tests used:
# Assay in all cases: NCI-60 cell line screen, 48 h
# 786-0 renal = system: 786-0 renal
# A498 renal = system: A498 renal
# A549 NSCLC = system: A549 NSCLC
# ACHN renal = system: ACHN renal
# BT-549 breast = system: BT-549 breast
# CAKI-1 renal = system: CAKI-1 renal
# CCRF-CEM leukemia = system: CCRF-CEM leukemia
# COLO 205 colon = system: COLO 205 colon
# DU-145 prostate = system: DU-145 prostate
# EKVX NSCLC = system: EKVX NSCLC
# HCC-2998 colon = system: HCC-2998 colon
# HCT-116 colon = system: HCT-116 colon
# HCT-15 colon = system: HCT-15 colon
# HL-60(TB) leukemia = system: HL-60(TB) leukemia
# HOP-92 NSCLC = system: HOP-92 NSCLC
# HS 578T breast = system: HS 578T breast
# HT29 colon = system: HT29 colon
# IGROV1 ovarian = system: IGROV1 ovarian
# K-562 leukemia = system: K-562 leukemia
# KM12 colon = system: KM12 colon
# LOX IMVI melanoma = system: LOX IMVI melanoma
# M14 melanoma = system: M14 melanoma
# MALME-3M melanoma = system: MALME-3M melanoma
# MCF7 breast = system: MCF7 breast
# MDA-MB-231 breast = system: MDA-MB-231 breast
# MDA-MB-435 = system: MDA-MB-435
# MDA-N = system: MDA-N
# MOLT-4 leukemia = system: MOLT-4 leukemia
# NCI-H226 lung = system: NCI-H226 lung
# NCI-H23 lung = system: NCI-H23 lung
# NCI-H460 lung = system: NCI-H460 lung
# NCI-H522 lung = system: NCI-H522 lung
# NCI/ADR-RES ovarian = system: NCI/ADR-RES ovarian
# OVCAR-3 ovarian = system: OVCAR-3 ovarian
# OVCAR-4 ovarian = system: OVCAR-4 ovarian
# OVCAR-5 ovarian = system: OVCAR-5 ovarian
# OVCAR-8 ovarian = system: OVCAR-8 ovarian
# PC-3 prostate = system: PC-3 prostate
# RPMI-8226 leukemia = system: RPMI-8226 leukemia
# RXF 393 renal = system: RXF 393 renal
# SF-268 CNS = system: SF-268 CNS
# SF-295 CNS = system: SF-295 CNS
# SF-539 CNS = system: SF-539 CNS
# SK-MEL-2 melanoma = system: SK-MEL-2 melanoma
# SK-MEL-5 melanoma = system: SK-MEL-5 melanoma
# SK-OV-3 ovarian = system: SK-OV-3 ovarian
# SN12C renal = system: SN12C renal
# SNB-19 CNS = system: SNB-19 CNS
# SNB-75 CNS = system: SNB-75 CNS
# SR leukemia = system: SR leukemia
# SW-620 colon = system: SW-620 colon
# T-47D breast = system: T-47D breast
# TK-10 renal = system: TK-10 renal
# U251 CNS = system: U251 CNS
# UACC-257 melanoma = system: UACC-257 melanoma
# UACC-62 melanoma = system: UACC-62 melanoma
# UO-31 renal = system: UO-31 renal
structure (smiles),measurement,setting,value
C(=N\NC1=NCCN1)/c1ccc(-c2cn3cc(/C=N/NC4=NCCN4)ccc3n2)cc1,TGI,786-0 renal,> 66.4 µM
same,TGI,A498 renal,> 100 µM
same,TGI,A549 NSCLC,38.1 µM
same,TGI,ACHN renal,> 100 µM
same,TGI,BT-549 breast,52.9 µM
same,TGI,CAKI-1 renal,49.4 µM
same,TGI,CCRF-CEM leukemia,25.1 µM
same,TGI,COLO 205 colon,> 100 µM
same,TGI,DU-145 prostate,37.7 µM
same,TGI,EKVX NSCLC,> 92.4 µM
same,TGI,HCC-2998 colon,> 100 µM
same,TGI,HCT-116 colon,> 62.4 µM
same,TGI,HCT-15 colon,> 100 µM
same,TGI,HL-60(TB) leukemia,19.7 µM
same,TGI,HOP-92 NSCLC,43.2 µM
same,TGI,HS 578T breast,> 100 µM
same,TGI,HT29 colon,> 67.7 µM
same,TGI,IGROV1 ovarian,> 64.5 µM
same,TGI,K-562 leukemia,42.5 µM
same,TGI,KM12 colon,> 100 µM
same,TGI,LOX IMVI melanoma,> 52.5 µM
same,TGI,M14 melanoma,> 62.6 µM
same,TGI,MALME-3M melanoma,> 100 µM
same,TGI,MCF7 breast,> 100 µM
same,TGI,MDA-MB-231 breast,34.6 µM
same,TGI,MDA-MB-435,> 79.7 µM
same,TGI,MDA-N,> 100 µM
same,TGI,MOLT-4 leukemia,> 37.4 µM
same,TGI,NCI-H226 lung,> 100 µM
same,TGI,NCI-H23 lung,> 100 µM
same,TGI,NCI-H460 lung,> 45.8 µM
same,TGI,NCI-H522 lung,> 100 µM
same,TGI,NCI/ADR-RES ovarian,> 100 µM
same,TGI,OVCAR-3 ovarian,> 67 µM
same,TGI,OVCAR-4 ovarian,> 100 µM
same,TGI,OVCAR-5 ovarian,> 100 µM
same,TGI,OVCAR-8 ovarian,> 55 µM
same,TGI,PC-3 prostate,> 59.4 µM
same,TGI,RPMI-8226 leukemia,> 100 µM
same,TGI,RXF 393 renal,> 100 µM
same,TGI,SF-268 CNS,> 66.1 µM
same,TGI,SF-295 CNS,> 70.1 µM
same,TGI,SF-539 CNS,> 100 µM
same,TGI,SK-MEL-2 melanoma,> 100 µM
same,TGI,SK-MEL-5 melanoma,> 100 µM
same,TGI,SK-OV-3 ovarian,> 100 µM
same,TGI,SN12C renal,> 63.1 µM
same,TGI,SNB-19 CNS,> 61.8 µM
same,TGI,SNB-75 CNS,> 100 µM
same,TGI,SR leukemia,13.5 µM
same,TGI,SW-620 colon,> 100 µM
same,TGI,T-47D breast,> 100 µM
same,TGI,TK-10 renal,56.1 µM
same,TGI,U251 CNS,> 64.9 µM
same,TGI,UACC-257 melanoma,> 100 µM
same,TGI,UACC-62 melanoma,> 100 µM
same,TGI,UO-31 renal,99.8 µM
